We go through 14 compounds from PubChem BioAssay (NCI).

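Cultured in 96-well plates, cells were exposed to test compound for 48 hours across five concentrations. Abbreviation: GI50, concentration required for 50% inhibition of growth. TGI: total growth inhibition.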

Common to all, as to test: NCI-60 cell line screen, 48 h
Experiment [1] has as its system COLO 205 colon.
Experiment [2] concerns SNB-78 CNS.
Experiment [3] concerns SNB-75 CNS.
Experiment [4] has as its system LXFL 529 NSCLC.
In experiment [5] the test system is A498 renal.
Experiment [6] has as its system K-562 leukemia.
Experiment [7] relates to SW-620 colon.
In experiment [8] the test system is DU-145 prostate.
Experiment [9] concerns MCF7 breast.
Experiment [10] relates to PC-3 prostate.

Turning to `Cc1cc2nc(CCC(=O)O)c(=O)[nH]c2cc1C`, the TGI in [1], in [2], in experiment [3], in [4], in experiment [5] and in [6] was over 100 µM each time.

As for `O=C(CC1(O)C(=O)Nc2c(Cl)ccc(Cl)c21)c1ccc2ccccc2c1` (configuration not stated), the TGI in experiment [7] was 12.5 µM; in experiment [1], 28.7 µM; in [2], 46.3 µM; in experiment [3] it was 54 µM; in [4] it was 21.8 µM; in experiment [5], 34.7 µM.

In the case of `CC(=O)[CH-]C(=O)c1ccccc1.CC(=O)[CH-]C(=O)c1ccccc1.[Eu+3].[OH-].[OH3+]`, the GI50 in experiment [7] was over 100 µM; in experiment [1] it was over 100 µM; in experiment [3], 96.1 µM; in experiment [4] it was over 100 µM; in experiment [5], over 100 µM; in [6], over 100 µM. The TGI in experiment [7], in experiment [1], in experiment [3], in [4], in [5] and in [6] was over 100 µM throughout.

On to `Oc1cc(O)c2c(-c3c(O)c(-c4ccc(O)c(O)c4)[o+]c4cc(O)cc(O)c34)c(O)c(-c3ccc(O)c(O)c3)[o+]c2c1`, for which the TGI in [7] was over 100 µM; in experiment [1], over 100 µM; in experiment [2] it was over 100 µM; in experiment [3] it was 61.8 µM; in experiment [4] it was over 100 µM; in experiment [5], over 100 µM.

As for `O=C(CO)CC(=O)C(=O)Nc1ccccc1`, the TGI in [7], in experiment [1], in experiment [2], in [4] and in experiment [6] was over 100 µM throughout.

With `N#CC(C(=O)/C(=N/N)C(C#N)c1ccccc1)c1ccccc1` (configuration not stated), the TGI in experiment [7], in experiment [2], in experiment [4] and in [6] was over 100 µM in each case.

Regarding `Nc1ncnc2c1nc(Cl)n2C1OC2COP(=O)(O)OC2C1O` (configuration not stated), the TGI in [8] was over 300 µM; in experiment [7], over 300 µM; in experiment [9] it was over 300 µM; in [1] it was over 300 µM; in [2], over 300 µM; in experiment [3], over 213 µM. Besides, the TGI in [5] was over 300 µM; in [10] it was over 162 µM; in [6], over 300 µM.

Regarding `CN(C)c1ccc([O][Bi]([Cl])[Cl])cc1`, the GI50 in [7], in [1], in experiment [2] and in experiment [3] was over 100 µM throughout. Further, the TGI in experiment [7], in experiment [1], in experiment [2] and in experiment [3] was over 100 µM each time.

For `CCOc1ccccc1NC(=O)CC1SC(=Nc2ccc([N+](=O)[O-])cc2)NC1=O` (configuration not stated), the TGI in [7] is 52.7 µM; in experiment [1], 35.1 µM; in [2] it was over 100 µM; in experiment [3], 74.2 µM; in [4], 39.9 µM.

`CC1(CO)OC(n2cc(C(=O)NC(=O)OCc3ccccc3)c(=O)[nH]c2=O)CC1O` (configuration not stated): the TGI in experiment [7], in experiment [1], in experiment [3], in experiment [4], in [5] and in [6] was over 100 µM in each case.

Turning to `CC(=O)OC[C@]1(O)CC[C@@]23CC1C[C@@H]2CCC1C(C)(C)CCC[C@@]13C` (some centres not stated), the TGI in [7] is 22.5 µM; in experiment [1], 33.1 µM; in experiment [2], 32.7 µM; in experiment [3], 30 µM; in experiment [4] it was 23.2 µM; in experiment [6], 20.3 µM.

Regarding `CC(=O)[CH-]C(=O)c1ccccc1.CC(=O)[CH-]C(=O)c1ccccc1.CC(C)CCCC(C)[C@H]1CCC2[C@@H]3CC=C4C[C@@H]([O-])CC[C@]4(C)C3CC[C@@]21C.CC[O-].[Ti+4]` (some centres not stated), the GI50 in [7] is 46.6 µM; in [1], 48.5 µM; in experiment [3], 28.5 µM; in [4], 33.1 µM; in [5] it was 53.1 µM; in [6], 33.1 µM. The TGI in [7], in experiment [1], in experiment [3], in experiment [4], in experiment [5] and in experiment [6] was over 100 µM in each case.

Consider `COc1cc(/C=C(\C#N)C(=O)c2ccccc2)ccc1O`, for which the TGI in experiment [7], in experiment [1], in [2], in [4], in experiment [5] and in experiment [6] was over 100 µM throughout.

With `O=c1cc2ccccc2nn1Cc1cccc(Cl)c1`, the TGI in [7], in experiment [1], in experiment [2], in experiment [3], in experiment [5] and in experiment [6] was over 100 µM throughout.
